For the test, the system named is GP2D (KRAS G12D) cells. Description: 2D cell viability assay (CellTiter-Glo). The format is cell-based. As to conditions: 96 h; GP2D cells, 4 days, CellTiter-Glo luminescence; read-out: G12D 2D EC50. The protocol: Example B. 2D Cell Viability Assay
Compounds were tested in a 384-well format for their ability to inhibit the viability of GP2D (KRAS G12D) cells in 2D assays. Compounds were serially diluted (1:3) in DMSO. The LabCyte ECHO Acoustic dispenser system was used to pre-spot assay plates with 200 nL of test molecule per well. 1000 cells/well (40 μL volume per well) in RPMI medium with 10% FBS, and Penicillin-Streptomycin-Glutamine were plated in pre-spotted 384-well plates (Greiner, Catalog #781076) on the BioTEK EL406 liquid dispenser with a 5 μL dispensing cassette (BioTek 7170011). The plates were incubated at 37° C., 5% CO2 for 4 days before addition of CellTiter-Glo (CTG) reagent and measurement of luminescence signal. EC50 values were defined as the compound concentration that causes a 50% decrease in luminescence signal and were calculated using a sigmoidal dose-response model to generate curve fits.
A general note: Cellular ATP, detected with luciferase, serves as a proxy for viable cell number.

This note sets out measurements from patent US12448400B2, “KRAS G12D modulating compounds” (priority 2023, dated 2025).

pEC50: −log10 of the molar value.

A word on the pEC50: it is −log10 of the EC50, conventionally taken in molar units.

For `CCc1c(F)ccc2cc(O)cc(-c3c(F)c4c5c(nc(OC[C@@]67CCCN6C[C@H](F)C7)nc5c3F)N3C[C@H]5CC[C@H](N5)[C@H]3CCC4)c12` (atropisomer, axis not shown; (aR)) [Example 77-P, 4-((1S,4R,11R,15aR)-10,12-difluoro-8-(((2R,7aS)-2-fluorotetrahydro-1H-pyrrolizin-7a(5H)-yl)methoxy)-2,3,4,5,13,14,15,15a-octahydro-1H-1,4-epiminoazepino[1′,2′:1,8]azocino[2,3,4-de]quinazolin-11-yl)-5-ethyl-6-fluoronaphthalen-2-ol], the pEC50 was 9.54.
For the compound `C#Cc1c(F)ccc2cc(O)cc(-c3c(F)c4c5c(nc(OC[C@]6(C)CN(C)CC[C@@H]6C(F)F)nc5c3F)N3C[C@H]5CC[C@@H]([C@H]3CCC4)N5Cc3oc(=O)oc3C)c12` (atropisomer, axis not shown; (aR)) [Example 78, 4-(((1S,4R,15aR)-8-(((3S,4S)-4-(difluoromethyl)-1,3-dimethylpiperidin-3-yl)methoxy)-11-((R)-8-ethynyl-7-fluoro-3-hydroxynaphthalen-1-yl)-10,12-difluoro-2,3,4,5,13,14,15,15a-octahydro-1H-1,4-epiminoazepino[1′,2′:1,8]azocino[2,3,4-de]quinazolin-16-yl)methyl)-5-methyl-1,3-dioxol-2-one], the pEC50 was 10.10.
Turning to `Cc1oc(=O)oc1CN1[C@@H]2CC[C@H]1[C@@H]1[C@@H](C)Cc3c(Cl)c(-c4ccc(F)c5sc(N)c(C#N)c45)c(F)c4nc(OC[C@@]56CCCN5C[C@H](F)C6)nc(c34)N1C2` (atropisomer, axis not shown; (aS)) [Example 71, 2-amino-4-((1S,4R,11R,14S,14aS)-12-chloro-10-fluoro-8-(((2R,7aS)-2-fluorotetrahydro-1H-pyrrolizin-7a(5H)-yl)methoxy)-14-methyl-15-((5-methyl-2-oxo-1,3-dioxol-4-yl)methyl)-1,2,3,4,5,13,14,14a-octahydro-1,4-epiminoazepino[1′,2′:1,7]azepino[2,3,4-de]quinazolin-11-yl)-7-fluorobenzo[b]thiophene-3-carbonitrile], the pEC50 is 9.39.
Turning to `C[C@H]1Cc2c(Cl)c(-c3ccc(F)c4sc(N)c(C#N)c34)c(F)c3nc(OC[C@@]45CCCN4C[C@H](F)C5)nc(c23)N2C[C@H]3CC[C@H](N3)[C@H]12` (atropisomer, axis not shown; (aS)) [Example 71-P, 2-amino-4-((1S,4R,11R,14S,14aS)-12-chloro-10-fluoro-8-(((2R,7aS)-2-fluorotetrahydro-1H-pyrrolizin-7a(5H)-yl)methoxy)-14-methyl-1,2,3,4,5,13,14,14a-octahydro-1,4-epiminoazepino[1′,2′:1,7]azepino[2,3,4-de]quinazolin-11-yl)-7-fluorobenzo[b]thiophene-3-carbonitrile], the pEC50 is 9.74.
With `C#Cc1c(F)ccc2cccc(-c3nc4c5c(nc(OC[C@@]67CCCN6C[C@H](F)C7)nc5c3F)N3C[C@H]5CC[C@@H]([C@H]3CCC4)N5Cc3oc(=O)oc3CCCCC)c12` [Example 20, 4-(((6aR,7S,10R)-2-(8-ethynyl-7-fluoronaphthalen-1-yl)-1-fluoro-13-(((2R,7aS)-2-fluorotetrahydro-1H-pyrrolizin-7a(5H)-yl)methoxy)-5,6,6a,7,8,9,10,11-octahydro-4H-3,11a,12,14,15-pentaaza-7,10-methanocyclohepta[4,5]cycloocta[1,2,3-de]naphthalen-15-yl)methyl)-5-pentyl-1,3-dioxol-2-one] the figure was 8.30; with `C#Cc1c(F)ccc2cccc(-c3nc4c5c(nc(OC[C@@]67CCCN6C[C@H](F)C7)nc5c3F)N3C[C@H]5CC[C@@H]([C@H]3CCC4)N5Cc3oc(=O)oc3CCCCCC)c12` [Example 21, 4-(((6aR,7S,10R)-2-(8-ethynyl-7-fluoronaphthalen-1-yl)-1-fluoro-13-(((2R,7aS)-2-fluorotetrahydro-1H-pyrrolizin-7a(5H)-yl)methoxy)-5,6,6a,7,8,9,10,11-octahydro-4H-3,11a,12,14,15-pentaaza-7,10-methanocyclohepta[4,5]cycloocta[1,2,3-de]naphthalen-15-yl)methyl)-5-hexyl-1,3-dioxol-2-one], 8.28.
With `CCCCc1oc(=O)oc1CN1[C@@H]2CC[C@H]1[C@H]1CCCc3nc(-c4cc(O)cc5ccc(F)c(OC(F)(F)F)c45)c(F)c4nc(OC[C@@]56CCCN5C[C@H](F)C6)nc(c34)N1C2` [Example 22, 4-butyl-5-(((6aR,7S,10R)-1-fluoro-2-(7-fluoro-3-hydroxy-8-(trifluoromethoxy)naphthalen-1-yl)-13-(((2R,7aS)-2-fluorotetrahydro-1H-pyrrolizin-7a(5H)-yl)methoxy)-5,6,6a,7,8,9,10,11-octahydro-4H-3,11a,12,14,15-pentaaza-7,10-methanocyclohepta[4,5]cycloocta[1,2,3-de]naphthalen-15-yl)methyl)-1,3-dioxol-2-one] the figure was 9.07; with `CCCCCc1oc(=O)oc1CN1[C@@H]2CC[C@H]1[C@H]1CCCc3nc(-c4cc(O)cc5ccc(F)c(OC(F)(F)F)c45)c(F)c4nc(OC[C@@]56CCCN5C[C@H](F)C6)nc(c34)N1C2` [Example 23, 4-(((6aR,7S,10R)-1-fluoro-2-(7-fluoro-3-hydroxy-8-(trifluoromethoxy)naphthalen-1-yl)-13-(((2R,7aS)-2-fluorotetrahydro-1H-pyrrolizin-7a(5H)-yl)methoxy)-5,6,6a,7,8,9,10,11-octahydro-4H-3,11a,12,14,15-pentaaza-7,10-methanocyclohepta[4,5]cycloocta[1,2,3-de]naphthalen-15-yl)methyl)-5-pentyl-1,3-dioxol-2-one], 9.04; with `CCCCCCc1oc(=O)oc1CN1[C@@H]2CC[C@H]1[C@H]1CCCc3nc(-c4cc(O)cc5ccc(F)c(OC(F)(F)F)c45)c(F)c4nc(OC[C@@]56CCCN5C[C@H](F)C6)nc(c34)N1C2` [Example 24, 4-(((6aR,7S,10R)-1-fluoro-2-(7-fluoro-3-hydroxy-8-(trifluoromethoxy)naphthalen-1-yl)-13-(((2R,7aS)-2-fluorotetrahydro-1H-pyrrolizin-7a(5H)-yl)methoxy)-5,6,6a,7,8,9,10,11-octahydro-4H-3,11a,12,14,15-pentaaza-7,10-methanocyclohepta[4,5]cycloocta[1,2,3-de]naphthalen-15-yl)methyl)-5-hexyl-1,3-dioxol-2-one], 8.96.
`C#Cc1c(F)ccc2cc(OC(=O)O[C@@H](C)C(C)C)cc(-c3nc4c5c(nc(OC[C@@]67CCCN6C[C@H](F)C7)nc5c3F)N3C[C@H]5CC[C@@H]([C@H]3CCC4)N5Cc3oc(=O)oc3C)c12` [Example 39, 5-ethynyl-6-fluoro-4-((6aR,7S,10R)-1-fluoro-13-(((2R,7aS)-2-fluorotetrahydro-1H-pyrrolizin-7a(5H)-yl)methoxy)-15-((5-methyl-2-oxo-1,3-dioxol-4-yl)methyl)-5,6,6a,7,8,9,10,11-octahydro-4H-3,11a,12,14,15-pentaaza-7,10-methanocyclohepta[4,5]cycloocta[1,2,3-de]naphthalen-2-yl)naphthalen-2-yl ((S)-3-methylbutan-2-yl) carbonate]: the negative logarithm of the EC50 (pEC50) is 9.59.
With `C#Cc1c(F)ccc2cc(O)cc(-c3nc4c5c(nc(OC[C@@]67CCCN6C[C@H](F)C7)nc5c3F)N3C[C@H]5CC[C@@H]([C@H]3CCC4)N5Cc3oc(=O)oc3CC)c12` [Example 40, 4-ethyl-5-(((6aR,7S,10R)-2-(8-ethynyl-7-fluoro-3-hydroxynaphthalen-1-yl)-1-fluoro-13-(((2R,7aS)-2-fluorotetrahydro-1H-pyrrolizin-7a(5H)-yl)methoxy)-5,6,6a,7,8,9,10,11-octahydro-4H-3,11a,12,14,15-pentaaza-7,10-methanocyclohepta[4,5]cycloocta[1,2,3-de]naphthalen-15-yl)methyl)-1,3-dioxol-2-one], the pEC50 is 9.66.
Regarding `C#Cc1c(F)ccc2cc(O)cc(-c3nc4c5c(nc(OC[C@@]67CCCN6C[C@H](F)C7)nc5c3F)N3C[C@H]5CC[C@@H]([C@H]3CCC4)N5Cc3oc(=O)oc3CCC)c12` [Example 41, 4-(((6aR,7S,10R)-2-(8-ethynyl-7-fluoro-3-hydroxynaphthalen-1-yl)-1-fluoro-13-(((2R,7aS)-2-fluorotetrahydro-1H-pyrrolizin-7a(5H)-yl)methoxy)-5,6,6a,7,8,9,10,11-octahydro-4H-3,11a,12,14,15-pentaaza-7,10-methanocyclohepta[4,5]cycloocta[1,2,3-de]naphthalen-15-yl)methyl)-5-propyl-1,3-dioxol-2-one], the pEC50 is 9.74.
As for `C#Cc1c(F)ccc2cc(OCc3oc(=O)oc3C(C)(C)C)cc(-c3nc4c5c(nc(OC[C@@]67CCCN6C[C@H](F)C7)nc5c3F)N3C[C@H]5CC[C@H](N5)[C@@H]3[C@@H](C)C4)c12` [Example 67, 4-(tert-butyl)-5-(((5-ethynyl-6-fluoro-4-((5S,5aS,6S,9R)-1-fluoro-12-(((2R,7aS)-2-fluorotetrahydro-1H-pyrrolizin-7a(5H)-yl)methoxy)-5-methyl-4,5,5a,6,7,8,9,10-octahydro-3,10a,11,13,14-pentaaza-6,9-methanonaphtho[1,8-ab]heptalen-2-yl)naphthalen-2-yl)oxy)methyl)-1,3-dioxol-2-one], the pEC50 is 8.89.
